Source: patent publication US20110098221A1, “INHIBITORS OF Akt ACTIVITY” (priority 2008, published 2011)

Target: T1, full length AKT1 (Homo sapiens, UniProt P31749)
T1 construct: His tag (from vector pFastBacHTb) (N); made in house; host or cells: baculovirus; Sf9 / T. ni insect cells
Assay: Full-length AKT enzyme assay (substrate phosphorylation, SPA)
Type: biochemical
Details: in at least one experimental run; pIC50 = -log(IC50), IC50 in molar units; 4 uM ATP, 10 nM activated enzyme; read-out: pIC50 against full length AKT1 (converted)

T1 sequence (P31749 whole entry): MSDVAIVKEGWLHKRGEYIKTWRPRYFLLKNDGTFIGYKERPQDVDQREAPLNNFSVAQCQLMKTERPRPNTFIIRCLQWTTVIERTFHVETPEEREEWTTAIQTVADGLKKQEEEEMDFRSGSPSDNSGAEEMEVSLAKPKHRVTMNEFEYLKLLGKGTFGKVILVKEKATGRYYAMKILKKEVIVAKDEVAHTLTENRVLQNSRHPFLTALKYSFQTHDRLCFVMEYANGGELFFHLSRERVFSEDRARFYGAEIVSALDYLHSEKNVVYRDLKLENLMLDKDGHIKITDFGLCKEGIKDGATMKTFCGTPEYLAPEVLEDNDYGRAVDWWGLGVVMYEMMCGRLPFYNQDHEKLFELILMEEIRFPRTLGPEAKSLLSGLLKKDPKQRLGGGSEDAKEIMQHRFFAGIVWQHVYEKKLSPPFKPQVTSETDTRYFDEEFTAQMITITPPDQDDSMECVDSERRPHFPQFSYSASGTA

With `Cn1nccc1-c1cnc(C(=O)N[C@H](CN)Cc2cccc(F)c2)s1` [Example 1, N-{(1S)-2-amino-1-[(3-fluorophenyl)methyl]ethyl}-5-(1-methyl-1H-pyrazol-5-yl)-1,3-thiazole-2-carboxamide] as the compound, how does the IC50 read?
Its IC50 is 6.31 nM.
